Experimental data as given in publication PMC7191050 (Molecules and Cells, 2020).

Assays:
Assay type in all cases: binding
[1] = molecular target: T1, Ca IleRS (isoleucyl-tRNA synthetase) (Candida albicans, UniProt Q59RI1); assay: X-ray crystal structure at […] Å
T1 sequence (Q59RI1 1-856): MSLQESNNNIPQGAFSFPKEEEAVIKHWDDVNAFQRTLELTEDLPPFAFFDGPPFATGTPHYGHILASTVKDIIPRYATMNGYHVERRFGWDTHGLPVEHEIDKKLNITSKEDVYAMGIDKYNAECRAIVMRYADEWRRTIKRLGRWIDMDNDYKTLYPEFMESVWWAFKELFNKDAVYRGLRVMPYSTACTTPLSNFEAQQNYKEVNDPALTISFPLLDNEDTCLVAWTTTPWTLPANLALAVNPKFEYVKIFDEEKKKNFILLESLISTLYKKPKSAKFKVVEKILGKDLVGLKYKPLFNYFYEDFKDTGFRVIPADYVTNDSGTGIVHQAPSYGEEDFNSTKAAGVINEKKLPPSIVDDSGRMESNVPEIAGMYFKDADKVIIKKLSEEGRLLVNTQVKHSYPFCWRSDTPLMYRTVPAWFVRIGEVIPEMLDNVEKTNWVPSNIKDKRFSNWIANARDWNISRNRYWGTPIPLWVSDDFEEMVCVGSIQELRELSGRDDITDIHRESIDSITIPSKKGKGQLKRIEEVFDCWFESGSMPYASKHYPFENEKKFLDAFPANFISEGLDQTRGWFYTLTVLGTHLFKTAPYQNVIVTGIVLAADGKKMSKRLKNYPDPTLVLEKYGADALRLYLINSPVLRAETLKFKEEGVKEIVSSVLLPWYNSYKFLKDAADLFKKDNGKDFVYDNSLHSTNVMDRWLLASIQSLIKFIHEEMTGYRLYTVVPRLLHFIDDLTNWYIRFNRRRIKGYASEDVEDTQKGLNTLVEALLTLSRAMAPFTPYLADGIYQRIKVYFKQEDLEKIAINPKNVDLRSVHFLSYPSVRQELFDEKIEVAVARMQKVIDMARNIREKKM

[2] = molecular target: T2, Ca IleRS (isoleucyl-tRNA synthetase) (Candida albicans, UniProt Q59RI1); assay: microscale thermophoresis
T2 sequence (Q59RI1 1-1088): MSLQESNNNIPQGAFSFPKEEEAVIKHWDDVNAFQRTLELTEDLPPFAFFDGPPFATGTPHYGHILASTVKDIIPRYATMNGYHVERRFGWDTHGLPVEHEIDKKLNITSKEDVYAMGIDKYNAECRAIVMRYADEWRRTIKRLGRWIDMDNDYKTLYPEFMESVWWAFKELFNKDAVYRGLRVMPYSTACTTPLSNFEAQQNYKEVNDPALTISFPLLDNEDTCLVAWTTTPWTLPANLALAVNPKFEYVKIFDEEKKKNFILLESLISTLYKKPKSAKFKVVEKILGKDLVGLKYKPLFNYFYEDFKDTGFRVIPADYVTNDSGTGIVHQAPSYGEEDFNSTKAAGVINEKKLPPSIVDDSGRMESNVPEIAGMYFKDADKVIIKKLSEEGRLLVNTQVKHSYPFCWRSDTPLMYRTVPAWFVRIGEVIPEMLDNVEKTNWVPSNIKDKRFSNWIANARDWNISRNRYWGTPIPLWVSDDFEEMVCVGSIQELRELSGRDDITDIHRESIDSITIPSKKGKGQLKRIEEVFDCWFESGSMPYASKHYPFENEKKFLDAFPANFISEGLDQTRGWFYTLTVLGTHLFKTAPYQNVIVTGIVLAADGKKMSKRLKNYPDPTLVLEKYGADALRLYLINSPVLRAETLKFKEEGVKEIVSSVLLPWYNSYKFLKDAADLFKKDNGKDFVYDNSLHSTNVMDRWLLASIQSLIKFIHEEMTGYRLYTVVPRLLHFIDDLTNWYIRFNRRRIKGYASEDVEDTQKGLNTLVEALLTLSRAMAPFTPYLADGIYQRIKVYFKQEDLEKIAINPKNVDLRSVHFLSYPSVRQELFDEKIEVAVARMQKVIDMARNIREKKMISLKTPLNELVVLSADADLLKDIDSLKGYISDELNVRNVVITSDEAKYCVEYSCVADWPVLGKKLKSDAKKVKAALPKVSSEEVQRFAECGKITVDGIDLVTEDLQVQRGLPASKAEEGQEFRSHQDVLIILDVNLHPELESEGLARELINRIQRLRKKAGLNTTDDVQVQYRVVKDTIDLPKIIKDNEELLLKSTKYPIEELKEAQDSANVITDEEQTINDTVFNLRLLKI

[3] = molecular target: T3, Ca IleRS mutant (isoleucyl-tRNA synthetase) (Candida albicans, UniProt Q59RI1, I601F/T599H); assay: microscale thermophoresis
T3 sequence (Q59RI1 1-1088 T599H/I601F): T2 sequence (Q59RI1 1-1088)

CC[C@H](C)[C@H](N)C(=O)OP(=O)(O)OC[C@H]1O[C@@H](n2cnc3c(N)ncnc32)[C@H](O)[C@@H]1O [Ile-AMP]
X-ray crystal structure at 2.9 Å (ligand co-purified, none added) [1]: The crystal structure of Ca IleRS revealed clear electron density for Ile-AMP at the synthetic active site

C/C(=C\C(=O)OCCCCCCCCC(=O)O)C[C@@H]1OC[C@H](C[C@@H]2O[C@H]2[C@@H](C)[C@H](C)O)[C@@H](O)[C@H]1O [mupirocin]
Kd [2]: 103 to 111 µM
Kd [3]: 103 to 111 µM
